# Assay results taken from paper PMC8130611 (ACS infectious diseases, 2021).
# Entries after “also recorded” stand apart in the source; their conditions may differ.
# Legend:
# [1] = target: TNF-R1–TNF-α interaction (Homo sapiens, UniProt P01375+P19438); experiment: cell-free ELISA-type counter-assay, inhibition of TNF-R1–TNF-α interaction; assay type: binding
# [2] = test system: THP-1 human cells; settings: concentrations of up to 200 μM; ref [61], [62]; cited from earlier work
# [3] = test system: SARS-CoV; settings: cited from earlier work
# [4] = target: SARS-CoV-2-S-RBD–hACE2 PPI (Severe acute respiratory syndrome coronavirus 2, UniProt P0DTC2); assay type: binding, human; settings: for IC50: read-out: IC50, inhibition of SARS-CoV-2-RBD binding to hACE2
# [5] = test system: HEK293T cells
# [6] = test system: BacMam-based pseudovirus bearing the SARS-CoV-2 S protein; assay type: cell-based
# Sequence of TNF-R1–TNF-α interaction (P19438 30-211): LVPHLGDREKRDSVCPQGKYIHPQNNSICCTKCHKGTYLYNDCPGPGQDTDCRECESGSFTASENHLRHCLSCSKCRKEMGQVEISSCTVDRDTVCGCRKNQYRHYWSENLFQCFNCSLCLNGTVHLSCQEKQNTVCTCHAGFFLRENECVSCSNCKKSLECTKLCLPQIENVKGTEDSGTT
# Sequence of TNF-R1–TNF-α interaction (P01375 85-233): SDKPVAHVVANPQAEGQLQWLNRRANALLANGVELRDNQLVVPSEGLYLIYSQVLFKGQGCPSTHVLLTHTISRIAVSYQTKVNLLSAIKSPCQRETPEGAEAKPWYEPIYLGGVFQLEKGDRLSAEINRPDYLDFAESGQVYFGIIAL
molecule,measurement,setting,value
Nc1c(/N=N/c2ccc(-c3ccc(/N=N/c4cc(S(=O)(=O)O)c5ccccc5c4N)cc3)cc2)cc(S(=O)(=O)O)c2ccccc12 [Congo red],IC50,[1],6 µM
O=C(Nc1ccc(-c2ccc(C(=O)Nc3cccc4cccc(S(=O)(=O)O)c34)cc2)cc1)c1ccc([N+](=O)[O-])cc1 [DRI-C21041],effect on viability of THP-1 human cells,[2],did not have significant effects
CN1CCN(c2ccc(CNC(=O)c3ccno3)cc2)CC1 [SSAA09E2],activities of previously identified candidates,[3],3.1 µM
OC(COc1cccc(OCC(O)CN2CCCCC2)c1)CN1CCCCC1 (stereo not shown) [VE607],activities of previously identified candidates,[3],1.6 µM
CCOc1ccc(N=Nc2ccc(-c3ccc(N=Nc4c(O)ccc5cc(S(=O)(=O)O)cc(S(=O)(=O)O)c45)c(C)c3)cc2C)cc1 [calcomine scarlet 3B],IC50,[4],4.25 µM
Nc1ccc(N=Nc2ccc(-c3ccc(N=Nc4c(S(=O)(=O)O)cc5cc(S(=O)(=O)O)c(N=Nc6ccccc6)c(O)c5c4N)cc3)cc2)c(N)c1 [chlorazol black],IC50,[4],2.57 µM
CCN(CC)CCCC(C)Nc1ccnc2cc(Cl)ccc12 (stereo not shown) [chloroquine],cytotoxicity (MTS),[5],noticeable cytotoxicity
CCN(CCO)CCCC(C)Nc1ccnc2cc(Cl)ccc12 (stereo not shown) [hydroxychloroquine],"inhibition of pseudovirus entry (BacMam), in words",[6],did not show any significant inhibition; also recorded: no effect
CN(C)c1ccc2nc3ccc(=[N+](C)C)cc-3sc2c1 [methylene blue],activity in screening for inhibitors of SARS-CoV-2 RBD binding,[4],promising inhibitory activity
Nc1c(N=Nc2ccc([N+](=O)[O-])cc2)c(S(=O)(=O)[O-])cc2cc(S(=O)(=O)[O-])c(N=Nc3ccccc3)c(O)c12.[Na+].[Na+] [naphthol blue black],inhibitory activity on SARS-CoV-2-RBD–hACE2 binding (in words),[4],no inhibitory activity
O=C([O-])c1c(Cl)c(Cl)c(Cl)c(Cl)c1-c1c2cc(Br)c(=O)c(Br)c-2oc2c(Br)c([O-])c(Br)cc12.[Na+].[Na+] [phloxine B],activity in screening for inhibitors of SARS-CoV-2 RBD binding,[4],strongest activity
O=C([O-])c1c(Cl)c(Cl)c(Cl)c(Cl)c1-c1c2cc(I)c(=O)c(I)c-2oc2c(I)c([O-])c(I)cc12.[Na+].[Na+] [rose Bengal],activity in screening for inhibitors of SARS-CoV-2 RBD binding,[4],strongest activity
O=S(=O)([O-])c1ccc(N=Nc2c(O)ccc3cc(S(=O)(=O)[O-])ccc23)cc1.[Na+].[Na+] [sunset yellow FCF],inhibitory activity on SARS-CoV-2-RBD–hACE2 binding (in words),[4],no inhibitory activity
Cc1ccc(C(=O)Nc2ccc(S(=O)(=O)O)c3cc(S(=O)(=O)O)cc(S(=O)(=O)O)c23)cc1NC(=O)c1cccc(NC(=O)Nc2cccc(C(=O)Nc3cc(C(=O)Nc4ccc(S(=O)(=O)O)c5cc(S(=O)(=O)O)cc(S(=O)(=O)O)c45)ccc3C)c2)c1 [suramin],inhibitory activity on SARS-CoV-2-RBD–hACE2 binding (in words),[4],neither chloroquine nor suramin showed inhibitory activity; also recorded: no activity
erythrosine B,activity in screening for inhibitors of SARS-CoV-2 RBD binding,[4],strongest activity
same,IC50,[4],0.4 µM
